From patent US5252580A, “Indole derivatives and anti-ulcer compositions thereof” (priority 1991, dated 1993)

Legend:
[1] = background statement; cited from earlier work
H^+ /K^+ ATPase = biological target: T1, H^+ /K^+ ATPase (Sus scrofa, UniProt P19156); assay: H^+ /K^+ ATPase Inhibitory Activity Assay; format: biochemical; settings: pig stomach enzyme, 37° C., pH 6.2; for inhibition at 10 µg/mL: 10 μg/ml
T1 construct: prepared from the stomach of pig; from tissue; host or cells: pig stomach
Procedure: H^+ /K^+ ATPase Inhibitory Activity Assay
The inhibitory activity was determined in the following manner using H^+ /K^+ ATPase prepared from the stomach of pig.
H^+ /K^+ ATPase dilute solution (100 μl, 50 μg as protein) was added to PIPES-tris (pH 6.2) buffer solution (440 μl) containing 4 mM magnesium chloride and 20 mM potassium chloride. Further, 0.1% ethanol solution of nigericin (5 μl) was added. To the solution was added dimethyl sulfoxide (5 μl) and the mixture was incubated at 37° C. for 30 minutes. Then 10 mM PIPES-tris buffer solution (450 μl) containing 4 mM ATP disodium was added to initiate the reaction. 30 minutes later, 50% trichloroacetic acid (1 μl) was added to cease the reaction. The amount of phosphorus released in this reaction was determined by a color development determination at 800 nm according to D. Lebel, G. Poirier et al. method (Anal. Biochem. 85, 86-89, 1978), at which the reading of the absorbance is taken as C1. On the other hand, a similar determination was carried out in the absence of potassium chloride, at which the reading of the absorbance is taken as C2. The inhibitory activity was determined by a similar procedure as in the above reaction, but adding 5 μl of a dimethyl sulfoxide solution containing 1 to 20 mg/ml of the inhibiting substance (test compound), instead of dimethyl sulfoxide. In that case, the readings of the absorbance in the presence and absence of potassium chloride are taken as T1 and T2, respectively.
% Inhibition (I) of the inhibiting substance (test compound) is calculated by the following equation.

T1 sequence (P19156 2-1034 limits assumed): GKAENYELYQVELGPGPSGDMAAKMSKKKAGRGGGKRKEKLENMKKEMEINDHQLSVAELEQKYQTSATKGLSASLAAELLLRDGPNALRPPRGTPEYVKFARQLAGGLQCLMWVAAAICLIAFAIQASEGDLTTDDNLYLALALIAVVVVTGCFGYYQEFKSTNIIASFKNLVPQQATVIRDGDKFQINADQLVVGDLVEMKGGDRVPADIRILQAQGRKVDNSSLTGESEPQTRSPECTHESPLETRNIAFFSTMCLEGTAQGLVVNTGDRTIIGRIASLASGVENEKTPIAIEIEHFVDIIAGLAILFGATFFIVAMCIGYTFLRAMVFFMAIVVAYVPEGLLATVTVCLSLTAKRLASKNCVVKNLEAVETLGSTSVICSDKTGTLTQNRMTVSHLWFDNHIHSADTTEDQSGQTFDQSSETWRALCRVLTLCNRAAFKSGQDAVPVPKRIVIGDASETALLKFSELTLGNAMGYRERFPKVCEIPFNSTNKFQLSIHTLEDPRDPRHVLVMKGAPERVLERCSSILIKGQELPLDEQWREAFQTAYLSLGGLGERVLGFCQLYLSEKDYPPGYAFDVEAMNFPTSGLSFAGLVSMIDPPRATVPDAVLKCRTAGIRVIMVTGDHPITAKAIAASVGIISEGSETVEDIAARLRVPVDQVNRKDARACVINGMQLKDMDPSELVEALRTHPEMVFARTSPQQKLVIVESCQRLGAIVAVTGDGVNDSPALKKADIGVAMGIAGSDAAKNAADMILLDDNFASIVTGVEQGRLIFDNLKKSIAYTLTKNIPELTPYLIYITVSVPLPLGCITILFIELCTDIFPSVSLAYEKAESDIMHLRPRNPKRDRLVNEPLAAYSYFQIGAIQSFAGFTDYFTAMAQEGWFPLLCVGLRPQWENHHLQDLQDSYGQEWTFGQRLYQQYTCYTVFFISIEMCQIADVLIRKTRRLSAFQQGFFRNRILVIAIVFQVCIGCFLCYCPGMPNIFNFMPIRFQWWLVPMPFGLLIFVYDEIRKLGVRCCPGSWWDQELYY
T1 sequence (P18434 whole entry partner): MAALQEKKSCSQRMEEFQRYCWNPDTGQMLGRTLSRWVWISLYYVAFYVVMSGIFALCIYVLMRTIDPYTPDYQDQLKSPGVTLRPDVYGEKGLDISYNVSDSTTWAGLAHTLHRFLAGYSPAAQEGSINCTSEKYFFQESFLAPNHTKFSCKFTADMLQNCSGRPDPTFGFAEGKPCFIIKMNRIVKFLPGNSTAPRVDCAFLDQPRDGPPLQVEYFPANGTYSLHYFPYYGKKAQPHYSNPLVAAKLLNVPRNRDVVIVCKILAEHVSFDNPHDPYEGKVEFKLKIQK

Row | Structure (SMILES) | inhibition at 10 µg/mL (H^+ /K^+ ATPase) | other results
1 | COc1ccc2[nH]c([S+]([O-])Cc3ncc(C)c(OC)c3C)nc2c1 (stereo not shown) [Omeprazole] | – | occurrence of side effects [1]: occurrence of carcinoid
2 | CCOC(=O)N1CCCCC(c2ccc3c(c2)C2CCN(CC)CC2N3CC)c2[nH]c3ccccc3c2CC1 (stereo not shown) [Example 4, 6-(3-Ethoxycarbonyl-1,2,3,4,5,6,7,8-octahydro-azecino[5,4-b]indole-8-yl)-2,9-diethyl-1,2,3,4,4a,9a-hexahydropyrido[3,4-b]indole] | – | inhibition at 20 µg/mL (H^+ /K^+ ATPase; 20 μg/ml): 84%
3 | CCN1CCC2c3cc(C4CCCN(C(=O)OCc5ccccc5)CCc5c4[nH]c4ccccc54)ccc3N(CC)C2C1 (stereo not shown) [Example 11, 6-(3-Benzyloxycarbonyl-1,2,4,5,6,7-hexahydro-3H-azonino[5,4-b]indole-7-yl)-2,9-diethyl-1,2,3,4,4a,9a-hexahydropyrido[3,4-b]indole] | 97.5% | –
4 | CCN1CCC2c3cc(C(O)c4c(CCc5ccccn5)c5ccccc5n4S(=O)(=O)c4ccc(C)cc4)ccc3N(CC)C2C1 (stereo not shown) [Example 40] | 24.4% | –
5 | CCN1CCC2c3cc(C(OCc4ccccc4)c4c(CCN(Cc5ccccc5)Cc5ccccc5)c5ccccc5n4C)ccc3N(CC)C2C1 (stereo not shown) [Example 45, 6-(Benzyloxy-(3-(2-(N,N-dibenzylamino)ethyl)-1-methylindole-2-yl)-methyl)-2,9-diethyl-1,2,3,4,4a,9a-hexahydropyrido[3,4-b]indole] | 65.7% | –
6 | CN1CC[C@H]2c3cc(C4CCCN(C(=O)OCc5ccccc5)CCc5c4[nH]c4ccccc54)ccc3N(C)[C@H]2C1 (stereo partly drawn) [Example 1, 4a,9a-cis-6-(3-Benzyloxycarbonyl-1,2,4,5,6,7-hexahydro-3H-azonino[5,4-b]indole-7-yl)-2,9-dimethyl-1,2,3,4,4a,9a-hexahydro-pyrido[3,4-b]indole] | 54.9% | –
7 | CCN1CCC2c3cc(C(O)c4c(CCN(Cc5ccccc5)Cc5ccccc5)c5ccccc5n4S(=O)(=O)c4ccc(C)cc4)ccc3N(CC)C2C1 (stereo not shown) [Example 34, 2,9-Diethyl-6-(3-(2-dibenzylaminoethyl)-1-tosyl-indole-2-yl)hydroxymethyl-1,2,3,4,4a,9a-hexahydro-pyrido[3,4-b]indole] | 80.8% | –
8 | CCN1CCC2c3cc(C(C)c4[nH]c5ccccc5c4CCN(Cc4ccccc4)C(=O)OCc4ccccc4)ccc3N(CC)C2C1 (stereo not shown) [Example 19, 6-(1-(3-(2-Benzyl(benzyloxycarbonyl)aminoethyl)-indole-2-yl)ethyl)-2,9-diethyl-1,2,3,4,4a,9a-hexahydro-pyrido[3,4-b]indole] | 92.5% | –
9 | CCN1CCC2c3cc(C(O)c4c(CCOCc5ccccc5)c5ccccc5n4Cc4ccccc4)ccc3N(CC)C2C1 (stereo not shown) [Example 39, 2,9-Diethyl-6-(3-(2-benzyloxyethyl)-1-benzyl-indole-2-yl)hydroxymethyl-1,2,3,4,4a,9a-hexahydro-pyrido[3,4-b]indole] | 78.8% | –
10 | CCN1CCC2c3cc(C4Cc5ccccc5CN(C(=O)OCc5ccccc5)CCc5c4[nH]c4ccccc54)ccc3N(CC)C2C1 (stereo not shown) [Example 10, 6-(13-Benzyloxycarbonyl-6,7,12,13,14,15-hexahydrobenzo[h]azecino[5,4-b]indole-6-yl)-2,9-diethyl-1,2,3,4,4a,9a-hexahydro-pyrido[3,4-b]indole] | – | inhibition at 5 µg/mL (H^+ /K^+ ATPase; 5 μg/ml): 98.4%
